According to ChEMBL document CHEMBL4017471, “Discovery of novel aminobenzisoxazole derivatives as orally available factor IXa inhibitors” (Bioorg Med Chem Lett, 2017):

Test system: not listed separately
Test: Cmax in rat at 1 mg/kg, po administered as cassette dose
Assay type: ADME, organism-based
Set-up: dose 1 mg/kg, route oral
Details: in vivo

**Q.** Which Cmax does the source give for `Nc1noc2c(N3CC[C@@H](NC(=O)c4ccc(-n5cnc(CCO)c5)cc4Cl)C3)ncc(Cl)c12` here?
**A.** 210 ng/mL

**Q.** With `Nc1noc2c(N3CC[C@@H](NC(=O)c4ccc(-n5cnnc5C(F)F)cc4Cl)C3)ncc(Cl)c12` as the compound, how does the Cmax read?
**A.** 100 ng/mL

**Q.** With `Nc1noc2c(N3CC[C@@H](NC(=O)c4ccc(-n5cnc6ccccc65)cc4Cl)C3)ncc(Cl)c12` as the compound, how does the Cmax read?
**A.** 110 ng/mL

**Q.** For `Nc1noc2c(N3CC[C@@H](NC(=O)c4ccc(-c5cncnc5)cc4Cl)C3)ncc(Cl)c12`, which Cmax is on record?
**A.** 380 ng/mL

**Q.** For `Cn1cc(-c2ccc(C(=O)N[C@@H]3CCN(c4ncc(Cl)c5c(N)noc45)C3)c(Cl)c2)ccc1=O`, which Cmax is on record?
**A.** 510 ng/mL

Target: Coagulation factor IX (Homo sapiens, UniProt P00740)
Sequence (P00740 47-191 limits assumed): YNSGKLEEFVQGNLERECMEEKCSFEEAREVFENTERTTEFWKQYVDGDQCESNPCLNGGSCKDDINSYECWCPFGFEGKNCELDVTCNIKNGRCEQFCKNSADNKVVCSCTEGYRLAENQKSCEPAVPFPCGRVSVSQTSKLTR
Sequence (P00740 227-461 limits assumed): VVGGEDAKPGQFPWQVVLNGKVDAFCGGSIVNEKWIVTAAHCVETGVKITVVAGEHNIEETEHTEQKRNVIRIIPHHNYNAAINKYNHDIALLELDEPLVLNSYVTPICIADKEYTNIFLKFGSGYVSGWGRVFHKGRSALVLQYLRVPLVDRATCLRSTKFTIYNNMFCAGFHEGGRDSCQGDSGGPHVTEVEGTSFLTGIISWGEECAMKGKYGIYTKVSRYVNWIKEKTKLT
Details: not given

**Q.** For `Cc1cc(N2CC[C@@H](NC(=O)c3ccc(-n4cnnc4)cc3Cl)C2)c2onc(N)c2c1Cl`, which IC50 is on record?
**A.** 62 nM

**Q.** With `Nc1noc2c(N3CC[C@@H](NC(=O)c4ccc(-n5cnc(CCO)c5)cc4Cl)C3)ncc(Cl)c12` as the compound, how does the IC50 read?
**A.** 13 nM

**Q.** Which IC50 does the source give for `Nc1noc2c(N3CC[C@@H](NC(=O)c4ccc(-n5cnnc5C(F)F)cc4Cl)C3)ncc(Cl)c12` here?
**A.** 45 nM

**Q.** With `Nc1noc2c(N3CC[C@@H](NC(=O)c4ccc(-n5cnc6ccccc65)cc4Cl)C3)ncc(Cl)c12` as the compound, how does the IC50 read?
**A.** 32 nM

**Q.** For `Nc1noc2c(N3CC[C@@H](NC(=O)c4ccc(-c5cncnc5)cc4Cl)C3)ncc(Cl)c12`, which IC50 is on record?
**A.** 26 nM

**Q.** Which IC50 does the source give for `Cn1cc(-c2ccc(C(=O)N[C@@H]3CCN(c4ncc(Cl)c5c(N)noc45)C3)c(Cl)c2)ccc1=O` here?
**A.** 18 nM

Test system: not listed separately
Test: Unbound plasma concentration in human at 10 uM measured after 4 hrs by equilibrium dialysis method
Assay type: ADME, cell-free
Details: not given

**Q.** Which fraction unbound at 4 h, 10 µM does the source give for `Nc1noc2c(N3CC[C@@H](NC(=O)c4ccc(-n5cnc(CCO)c5)cc4Cl)C3)ncc(Cl)c12` here?
**A.** 0.005

**Q.** For `Nc1noc2c(N3CC[C@@H](NC(=O)c4ccc(-n5cnnc5C(F)F)cc4Cl)C3)ncc(Cl)c12`, which fraction unbound at 4 h, 10 µM is on record?
**A.** 0.012

**Q.** For `Nc1noc2c(N3CC[C@@H](NC(=O)c4ccc(-n5cnc6ccccc65)cc4Cl)C3)ncc(Cl)c12`, which fraction unbound at 4 h, 10 µM is on record?
**A.** 0.001

**Q.** With `Nc1noc2c(N3CC[C@@H](NC(=O)c4ccc(-c5cncnc5)cc4Cl)C3)ncc(Cl)c12` as the compound, how does the fraction unbound at 4 h, 10 µM read?
**A.** 0.002

**Q.** With `Cn1cc(-c2ccc(C(=O)N[C@@H]3CCN(c4ncc(Cl)c5c(N)noc45)C3)c(Cl)c2)ccc1=O` as the compound, how does the fraction unbound at 4 h, 10 µM read?
**A.** 0.004

Target: Coagulation factor X (Homo sapiens, UniProt P00742)
Sequence (P00742 41-179 limits assumed): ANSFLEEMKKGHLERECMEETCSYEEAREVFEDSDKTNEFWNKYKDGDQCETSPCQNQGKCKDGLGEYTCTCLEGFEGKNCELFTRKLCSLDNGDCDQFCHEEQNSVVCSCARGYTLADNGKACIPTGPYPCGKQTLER
Sequence (P00742 235-488 limits assumed): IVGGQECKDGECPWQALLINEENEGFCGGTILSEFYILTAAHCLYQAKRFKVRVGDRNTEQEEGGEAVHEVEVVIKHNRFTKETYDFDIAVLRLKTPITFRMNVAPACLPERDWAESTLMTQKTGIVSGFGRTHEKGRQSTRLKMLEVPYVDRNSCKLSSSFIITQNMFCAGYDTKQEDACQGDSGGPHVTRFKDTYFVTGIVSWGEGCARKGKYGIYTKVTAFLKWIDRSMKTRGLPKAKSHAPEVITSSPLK
Details: not given

**Q.** For `Cc1cc(N2CC[C@@H](NC(=O)c3ccc(-n4cnnc4)cc3Cl)C2)c2onc(N)c2c1Cl`, which IC50 is on record?
**A.** 22000 nM

**Q.** With `Nc1noc2c(N3CC[C@@H](NC(=O)c4ccc(-n5cnc(CCO)c5)cc4Cl)C3)ncc(Cl)c12` as the compound, how does the IC50 read?
**A.** > 100000 nM

**Q.** With `Nc1noc2c(N3CC[C@@H](NC(=O)c4ccc(-n5cnnc5C(F)F)cc4Cl)C3)ncc(Cl)c12` as the compound, how does the IC50 read?
**A.** > 100000 nM

**Q.** Which IC50 does the source give for `Nc1noc2c(N3CC[C@@H](NC(=O)c4ccc(-n5cnc6ccccc65)cc4Cl)C3)ncc(Cl)c12` here?
**A.** > 100000 nM

**Q.** With `Nc1noc2c(N3CC[C@@H](NC(=O)c4ccc(-c5cncnc5)cc4Cl)C3)ncc(Cl)c12` as the compound, how does the IC50 read?
**A.** > 100000 nM

**Q.** Which IC50 does the source give for `Cn1cc(-c2ccc(C(=O)N[C@@H]3CCN(c4ncc(Cl)c5c(N)noc45)C3)c(Cl)c2)ccc1=O` here?
**A.** 20000 nM

Test system: Plasma
Test: Anticoagulant activity in human plasma assessed as concentration required to double activated partial thromboplastin time
Assay type: functional
Details: not given

**Q.** Which 2aPTT does the source give for `Nc1noc2c(N3CC[C@@H](NC(=O)c4ccc(-n5cnc(CCO)c5)cc4Cl)C3)ncc(Cl)c12` here?
**A.** 57 µM

**Q.** Which 2aPTT does the source give for `Nc1noc2c(N3CC[C@@H](NC(=O)c4ccc(-n5cnnc5C(F)F)cc4Cl)C3)ncc(Cl)c12` here?
**A.** 32 µM

**Q.** For `Nc1noc2c(N3CC[C@@H](NC(=O)c4ccc(-n5cnc6ccccc65)cc4Cl)C3)ncc(Cl)c12`, which 2aPTT is on record?
**A.** 72 µM

**Q.** With `Nc1noc2c(N3CC[C@@H](NC(=O)c4ccc(-c5cncnc5)cc4Cl)C3)ncc(Cl)c12` as the compound, how does the 2aPTT read?
**A.** 101 µM

**Q.** Which 2aPTT does the source give for `Cn1cc(-c2ccc(C(=O)N[C@@H]3CCN(c4ncc(Cl)c5c(N)noc45)C3)c(Cl)c2)ccc1=O` here?
**A.** 85 µM

Test system: not listed separately
Test: Apparent permeability of the compound at 5 uM after 5 hrs by PAMPA
Assay type: physicochemical
Details: not given

**Q.** With `Nc1noc2c(N3CC[C@@H](NC(=O)c4ccc(-n5cnc(CCO)c5)cc4Cl)C3)ncc(Cl)c12` as the compound, how does the Papp at 5 h, 5 µM read?
**A.** 1.6 ×10⁻⁶ cm/s

**Q.** For `Nc1noc2c(N3CC[C@@H](NC(=O)c4ccc(-n5cnnc5C(F)F)cc4Cl)C3)ncc(Cl)c12`, which Papp at 5 h, 5 µM is on record?
**A.** 2.7 ×10⁻⁶ cm/s

**Q.** With `Nc1noc2c(N3CC[C@@H](NC(=O)c4ccc(-n5cnc6ccccc65)cc4Cl)C3)ncc(Cl)c12` as the compound, how does the Papp at 5 h, 5 µM read?
**A.** 3.3 ×10⁻⁶ cm/s

**Q.** With `Nc1noc2c(N3CC[C@@H](NC(=O)c4ccc(-c5cncnc5)cc4Cl)C3)ncc(Cl)c12` as the compound, how does the Papp at 5 h, 5 µM read?
**A.** 9.4 ×10⁻⁶ cm/s

**Q.** With `Cn1cc(-c2ccc(C(=O)N[C@@H]3CCN(c4ncc(Cl)c5c(N)noc45)C3)c(Cl)c2)ccc1=O` as the compound, how does the Papp at 5 h, 5 µM read?
**A.** 6.5 ×10⁻⁶ cm/s
